We go through nine molecules from ChEMBL document CHEMBL3045994, “Design, synthesis, and anticonvulsant evaluation of some novel 1, 3 benzothiazol-2-yl hydrazones/acetohydrazones” (Med Chem Res, 2012).

For orientation: logP means the decadic logarithm of the partition coefficient of the neutral form, usually between octanol and water. Lower therefore signals a more hydrophilic compound.

A short description of data set [1]: Octanol-phosphate buffer partition coefficient, log P of the compound after 24 hr. Type of data set: physicochemical.
In data set [2] the test system is Mus musculus. In words: Neurotoxicity in Mus musculus albino CF1 (mouse) assessed as motor impairment at 300 mg/kg, ip up to 4 hr. Type of data set: toxicity, organism-based. Details: dose 300 mg/kg, route intraperitoneal. The following applies: in vivo.
Data set [3] relates to Mus musculus. As to the kind of experiment: Anticonvulsant activity in Mus musculus albino CF1 (mouse) assessed as protection against 6 Hz psychomotor seizure at 100 mg/kg, ip after 0.5 hr. Particulars: route intraperitoneal. Type of data set: functional.
The test system of data set [4] is Mus musculus. In words: Neurotoxicity in Mus musculus albino CF1 (mouse) assessed as motor impairment at 100 mg/kg, ip after 1 hr. Type of data set: toxicity, organism-based. The arrangement: dose 100 mg/kg, route intraperitoneal. The following applies: in vivo.
Data set [5] has as its system Mus musculus. In words: Neurotoxicity in Mus musculus albino CF1 (mouse) assessed as motor impairment at 100 mg/kg, ip after 0.5 hr. Type of data set: toxicity, organism-based. The following applies: in vivo. Details: dose 100 mg/kg, route intraperitoneal.
In data set [6] the test system is Mus musculus. As to the kind of experiment: Neurotoxicity in Mus musculus albino CF1 (mouse) assessed as motor impairment at 100 mg/kg, ip after 4 hr. The following applies: in vivo. Details: dose 100 mg/kg, route intraperitoneal. Type of data set: toxicity, organism-based.
Data set [7] relates to Mus musculus. In words: Neurotoxicity in Mus musculus albino CF1 (mouse) assessed as motor impairment at 100 mg/kg, ip after 0.25 hr. Type of data set: toxicity, organism-based. The arrangement: dose 100 mg/kg, route intraperitoneal. The following applies: in vivo.
The subject of data set [8] is Mus musculus. As to the kind of experiment: Anticonvulsant activity in Mus musculus albino CF1 (mouse) assessed as protection against 6 Hz psychomotor seizure at 100 mg/kg, ip after 2 hr. The following applies: route intraperitoneal. Type of data set: functional.
The subject of data set [9] is Mus musculus. As to the kind of experiment: Anticonvulsant activity in Mus musculus albino CF1 (mouse) assessed as protection against 6 Hz psychomotor seizure at 100 mg/kg, ip after 4 hr. Type of data set: functional. Particulars: route intraperitoneal.
Data set [10] relates to Mus musculus. As to the kind of experiment: Anticonvulsant activity in Mus musculus albino CF1 (mouse) assessed as protection against 6 Hz psychomotor seizure at 100 mg/kg, ip after 1 hr. The following applies: route intraperitoneal. Type of data set: functional.
Data set [11] relates to Mus musculus. As to the kind of experiment: Anticonvulsant activity in Mus musculus albino CF1 (mouse) assessed as protection against 6 Hz psychomotor seizure at 100 mg/kg, ip after 0.25 hr. Type of data set: functional. The following applies: route intraperitoneal.
Data set [12] has as its system Mus musculus. As to the kind of experiment: Neurotoxicity in Mus musculus albino CF1 (mouse) assessed as motor impairment at 100 mg/kg, ip after 2 hr. Type of data set: toxicity, organism-based. The arrangement: dose 100 mg/kg, route intraperitoneal. Particulars: in vivo.

For the molecule `O=C(CSc1nc2ccccc2s1)N/N=C/c1ccc(Oc2ccc3ccccc3c2)cc1`, the logP at 24 h in [1] was determined as 5.9. In addition, the Activity result with Mus musculus [2] is reported as “Non-toxic”; with Mus musculus [3], 25%; in the data set with Mus musculus [4], “Non-toxic”; in the data set with Mus musculus [5], “Non-toxic”; with Mus musculus [6], “Non-toxic”; in the data set with Mus musculus [7], “Non-toxic”. Also, the Activity in the data set with Mus musculus [8] is 0%; in the data set on Mus musculus [9] it was 0%; with Mus musculus [10], 0%; in the data set on Mus musculus [11], 0%; in the data set on Mus musculus [12], “Non-toxic”.
Regarding `O=C(CSc1nc2ccccc2s1)N/N=C1\C(=O)Nc2ccccc21`, the logP at 24 h in [1] was found to be 3.2. Besides, the Activity entry with Mus musculus [2] is reported as “Non-toxic”; in the data set with Mus musculus [3] it was 75%; with Mus musculus [4] it was “Non-toxic”; with Mus musculus [5] it was “Non-toxic”; in the data set on Mus musculus [6], “Non-toxic”; in the data set on Mus musculus [7], “Non-toxic”. For the same molecule, the Activity in the data set on Mus musculus [8] was 0%; in the data set with Mus musculus [9], 0%; with Mus musculus [10], 0%; in the data set with Mus musculus [11], 0%; in the data set with Mus musculus [12], “Non-toxic”.
`O=C(CSc1nc2ccccc2s1)N/N=C/c1ccc(Oc2ccc([N+](=O)[O-])cc2)cc1`: in [1], the logP at 24 h worked out at 5.3. For the same molecule, the Activity result is listed as “Non-toxic” in the data set with Mus musculus [2]; 0% with Mus musculus [3]; “Non-toxic” with Mus musculus [4]; “Non-toxic” in the data set with Mus musculus [5]; “Non-toxic” in the data set with Mus musculus [6]; “Non-toxic” in the data set on Mus musculus [7]. Also, the Activity is on record as 0% in the data set on Mus musculus [8]; 0% in the data set on Mus musculus [9]; 25% in the data set with Mus musculus [10]; 0% in the data set with Mus musculus [11]; “Non-toxic” with Mus musculus [12].
In data set [1], `Cc1ccc(Oc2ccc(/C=N/Nc3nc4ccccc4s3)cc2)cc1` displayed a logP at 24 h of 5.4. The Activity result is given as “Non-toxic” in the data set with Mus musculus [2]; 25% in the data set on Mus musculus [3]; “Non-toxic” with Mus musculus [4]; “Non-toxic” with Mus musculus [5]; “Non-toxic” with Mus musculus [6]; “Non-toxic” in the data set with Mus musculus [7]. Also, the Activity was 0% in the data set with Mus musculus [8]; 0% in the data set with Mus musculus [9]; 0% in the data set on Mus musculus [10]; 25% in the data set with Mus musculus [11]; “Non-toxic” in the data set with Mus musculus [12].
Molecule `Fc1ccc(Oc2ccc(/C=N/Nc3nc4ccccc4s3)cc2)cc1` had a logP at 24 h in data set [1] of 5. The Activity entry in the data set with Mus musculus [2] is “Non-toxic”.
The corresponding values for `Cc1ccc(Oc2ccc(/C=N/NC(=O)CSc3nc4ccccc4s3)cc2)cc1` are 5.7 and “Non-toxic”.
As for `O=[N+]([O-])c1ccc(Oc2ccc(/C=N/Nc3nc4ccccc4s3)cc2)cc1`, in data set [1], the logP at 24 h worked out at 5.1. For the same molecule, the Activity entry is recorded as “Non-toxic” in the data set with Mus musculus [2]; 25% with Mus musculus [3]; “Non-toxic” with Mus musculus [4]; “Non-toxic” with Mus musculus [5]; “Non-toxic” in the data set on Mus musculus [6]; “Non-toxic” with Mus musculus [7]. Also, the Activity in the data set with Mus musculus [8] is 0%; with Mus musculus [9], 0%; in the data set with Mus musculus [10], 50%; in the data set with Mus musculus [11], 50%; with Mus musculus [12] it was “Non-toxic”.
For the molecule `Cc1cc(Oc2ccc(/C=N/Nc3nc4ccccc4s3)cc2)ccc1Cl`, the logP at 24 h in [1] was 5.5. The Activity result is “Non-toxic” with Mus musculus [2]; 0% in the data set with Mus musculus [3]; “Non-toxic” with Mus musculus [4]; “Non-toxic” in the data set with Mus musculus [5]; “Non-toxic” in the data set on Mus musculus [6]; “Non-toxic” in the data set on Mus musculus [7]. In addition, the Activity with Mus musculus [8] is listed as 0%; in the data set with Mus musculus [9], 0%; in the data set with Mus musculus [10] it was 0%; in the data set with Mus musculus [11], 25%; with Mus musculus [12], “Non-toxic”.
The molecule `O=C(CSc1nc2ccccc2s1)N/N=C/c1ccc(Oc2ccc3c(c2)OCO3)cc1` yielded a logP at 24 h in data set [1] of 5.5. Besides, the Activity result in the data set with Mus musculus [2] is given as “Non-toxic”.
